The experiment relates to HT-29 cells. As to the kind of experiment: HT-29 necroptosis cell viability assay (TNF-α/SMAC mimetic/zVAD-FMK, CellTiter-Glo). Particulars: Homo sapiens. It is filed as cell-based. In short, it runs like this: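 Necroptosis was triggered by TNF-α (10 ng/ml), SMAC mimetic (6 μM) and zVAD-FMK (10 μM) in serum-free medium during 20 h compound exposure (10 concentrations, threefold steps) of HT-29 cells. IC50 from duplicate dose-responses uses CellTiter-Glo ATP luminescence as viability read-out.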
(In ATP-based viability assays light output follows the ATP content of the culture.)

[1] abbreviates: HT-29 cells stimulated with TNF-α (10 ng/ml), SMAC mimetic (6 μM) and zVAD-FMK (10 μM), 20 hours, CellTiter-Glo ATP luminescence, geometric mean IC50 from 10 points, read-out: Activity.
Where [2] appears, read: HT-29, HT-29 necroptosis cell viability, IC50 class symbols, read-out: Activity.
The mark [3] stands for this setting: HT-29, HT-29 necroptosis cell viability assay, class symbols for IC50, read-out: Activity.

Like-named read-outs stand apart in the source and are kept apart here. A value given as a limit tells only on which side of the number the result lay.

With `Cc1nc(C(N)=O)sc1Oc1ccc(-n2ncn(Cc3cnccc3Cl)c2=O)cc1F` [Example 31, 5-(4-(4-((4-chloropyridin-3-yl)methyl)-5-oxo-4,5-dihydro-1H-1,2,4-triazol-1-yl)-2-fluorophenoxy)-4-methylthiazole-2-carboxamide], the IC50 under setting [1] was under 100 nM.

For the molecule `Cc1nc(N2C[C@H](N)[C@@H]2C)sc1Oc1ccc(-n2ncn(Cc3c(F)cccc3F)c2=O)cc1` [Example 73, 2-(4-((2-((2S,3S)-3-amino-2-methylazetidin-1-yl)-4-methylthiazol-5-yl)oxy)phenyl)-4-(2,6-difluorobenzyl)-2,4-dihydro-3H-1,2,4-triazol-3-one], the IC50 under setting [1] is under 100 nM. On to `NC1CN(c2cc(Oc3ccc(-n4ncn(Cc5c(F)cccc5F)c4=O)cc3)ccn2)C1` [Example 322, 2-(4-((2-(3-aminoazetidin-1-yl)pyridin-4-yl)oxy)phenyl)-4-(2,6-difluorobenzyl)-2,4-dihydro-3H-1,2,4-triazol-3-one], for which the IC50 under setting [2] lay within 100 to 1000 nM. Turning to `C[C@H](Nc1cc(Oc2ccc(-n3ncn(Cc4c(F)cccc4F)c3=O)cc2)ccn1)C1CCC1` [Example 349, (S)-2-(4-((2-((1-cyclobutylethyl)amino)pyridin-4-yl)oxy)phenyl)-4-(2,6-difluorobenzyl)-2,4-dihydro-3H-1,2,4-triazol-3-one], the IC50 under setting [2] lay in the range of 100 to 1000 nM. Consider `O=c1n(Cc2c(F)cccc2F)cnn1-c1ccc(Oc2ccnc(N3C[C@H]4COC[C@H]4C3)c2)cc1` [Example 481, 4-(2,6-difluorobenzyl)-2-(4-((2-((3aR,6aS)-tetrahydro-1H-furo[3,4-c]pyrrol-5(3H)-yl)pyridin-4-yl)oxy)phenyl)-2,4-dihydro-3H-1,2,4-triazol-3-one], for which the IC50 under setting [3] lay in the range of 100 to 1000 nM.

For `Cc1nc(C2(O)COC2)sc1Oc1ccc(-n2ncn(Cc3c(F)cccc3F)c2=O)cc1F` [Example 585, 4-(2,6-difluorobenzyl)-2-(3-fluoro-4-((2-(3-hydroxyoxetan-3-yl)-4-methylthiazol-5-yl)oxy)phenyl)-2,4-dihydro-3H-1,2,4-triazol-3-one], under setting [3], the IC50 is under 100 nM.

Regarding `Cc1nc(CC2COC2)sc1Oc1ccc(-n2ncn(Cc3c(F)cccc3F)c2=O)cc1` [Example 552, 4-(2,6-difluorobenzyl)-2-(4-((4-methyl-2-(oxetan-3-ylmethyl)thiazol-5-yl)oxy)phenyl)-2,4-dihydro-3H-1,2,4-triazol-3-one], under setting [3], the IC50 is under 100 nM.

Consider `Cc1ncsc1Oc1ccc(-n2nc3n(c2=O)[C@@H](c2ccccc2)CC3)cc1F` (single isomer, unassigned) [Example 4], for which, under setting [1], the IC50 was under 100 nM. Turning to `Cc1cnn(C)c1Oc1ccc(-n2nc3n(c2=O)C(c2ccccc2)CC3)cc1F` (stereo not shown) [Example 175, 2-(4-((1,4-dimethyl-1H-pyrazol-5-yl)oxy)-3-fluorophenyl)-5-phenyl-2,5,6,7-tetrahydro-3H-pyrrolo[2,1-c][1,2,4]triazol-3-one], the IC50 under setting [3] is under 100 nM.

For the molecule `N#Cc1cccc(Oc2ccc(-n3ncn(Cc4c(F)cccc4F)c3=O)cc2)c1` [Example 437, 3-(4-(4-(2,6-difluorobenzyl)-5-oxo-4,5-dihydro-1H-1,2,4-triazol-1-yl)phenoxy)benzonitrile], the IC50 under setting [2] is under 100 nM. With `O=C1CC(n2ncn(Cc3ccccc3)c2=O)CCN1Cc1ccccc1` (stereo not shown) [Example 522, 1-benzyl-4-(4-benzyl-5-oxo-4,5-dihydro-1H-1,2,4-triazol-1-yl)piperidin-2-one], the IC50 under setting [3] is over 10000 nM. On the same count and under the same terms, the result for `O=c1n(Cc2c(F)cccc2F)cnn1-c1ccc(Oc2ccnc(N3CCCC3)c2)cc1` [Example 525, 4-(2,6-difluorobenzyl)-2-(4-((2-(pyrrolidin-1-yl)pyridin-4-yl)oxy)phenyl)-2,4-dihydro-3H-1,2,4-triazol-3-one] reads 100 to 1000 nM.

`CC1(O)CN(c2cc(Oc3ccc(-n4ncn(Cc5c(F)cccc5F)c4=O)cc3)ccn2)C1` [Example 329, 4-(2,6-difluorobenzyl)-2-(4-((2-(3-hydroxy-3-methylazetidin-1-yl)pyridin-4-yl)oxy)phenyl)-2,4-dihydro-3H-1,2,4-triazol-3-one]: under setting [2], the IC50 is under 100 nM.

For the molecule `N#Cc1cnc(Oc2ccc(-n3ncn(Cc4c(F)cccc4F)c3=O)cc2)s1` [Example 77, 2-(4-(4-(2,6-difluorobenzyl)-5-oxo-4,5-dihydro-1H-1,2,4-triazol-1-yl)phenoxy)thiazole-5-carbonitrile], the IC50 under setting [1] lay within 100 to 1000 nM. In the case of `O=c1n(Cc2c(F)cccc2F)cnn1-c1ccc(Oc2ccnc(N3CC(OC(F)F)C3)c2)cc1` [Example 287, 4-(2,6-difluorobenzyl)-2-(4-((2-(3-(difluoromethoxy)azetidin-1-yl)pyridin-4-yl)oxy)phenyl)-2,4-dihydro-3H-1,2,4-triazol-3-one], the IC50 under setting [2] was under 100 nM.

In the case of `Cc1nc(C(N)=O)sc1Oc1ccc(-n2nc3n(c2=O)[C@H](c2ccccc2)CO3)cc1F` [Example 445, (R)-5-(2-fluoro-4-(3-oxo-5-phenyl-5,6-dihydrooxazolo[2,3-c][1,2,4]triazol-2(3H)-yl)phenoxy)-4-methylthiazole-2-carboxamide], under setting [2], the IC50 is under 100 nM.

In the case of `CCOC1CN(c2cc(Oc3ccc(-n4ncn(Cc5c(F)cccc5F)c4=O)cc3F)c(C)cn2)C1` [Example 370, 4-(2,6-difluorobenzyl)-2-(4-((2-(3-ethoxyazetidin-1-yl)-5-methylpyridin-4-yl)oxy)-3-fluorophenyl)-2,4-dihydro-3H-1,2,4-triazol-3-one], the IC50 under setting [2] was under 100 nM.

For the molecule `NC(=O)c1scnc1Oc1ccc(-n2ncn(Cc3c(F)cccc3F)c2=O)cc1F` [Example 101, 4-(4-(4-(2,6-difluorobenzyl)-5-oxo-4,5-dihydro-1H-1,2,4-triazol-1-yl)-2-fluorophenoxy)thiazole-5-carboxamide], under setting [1], the IC50 is 100 to 1000 nM. As for `N#Cc1ccc(Oc2ccc(-n3ncn(Cc4c(F)cccc4F)c3=O)cc2)cc1` [Example 435, 4-(4-(4-(2,6-difluorobenzyl)-5-oxo-4,5-dihydro-1H-1,2,4-triazol-1-yl)phenoxy)benzonitrile], the IC50 under setting [2] fell in the range of 100 to 1000 nM. `Cc1nc(CC(N)=O)c(Oc2ccc(-n3ncn(Cc4c(F)cccc4F)c3=O)cc2F)s1` [Example 138, 2-(5-(4-(4-(2,6-difluorobenzyl)-5-oxo-4,5-dihydro-1H-1,2,4-triazol-1-yl)-2-fluorophenoxy)-2-methylthiazol-4-yl)acetamide]: the IC50 under setting [3] was under 100 nM. Still for that read-out and setting: the result for `CCOC(=O)c1cc(C)nn1Cc1ccc(-n2ncn(Cc3c(F)cccc3F)c2=O)cc1F` [Example 197, ethyl 1-(4-(4-(2,6-difluorobenzyl)-5-oxo-4,5-dihydro-1H-1,2,4-triazol-1-yl)-2-fluorobenzyl)-3-methyl-1H-pyrazole-5-carboxylate] reads under 100 nM. With `Cc1oc(C(N)=O)nc1Oc1ccc(-n2nc3n(c2=O)[C@H](c2ccccc2)CC3)cc1F` (single isomer, unassigned) [Example 696], under setting [1], the IC50 was under 100 nM. `Cc1nc(CC#N)cn1Cc1ccc(-n2ncn(Cc3c(F)cccc3F)c2=O)cc1F` [Example 141, 2-(1-(4-(4-(2,6-difluorobenzyl)-5-oxo-4,5-dihydro-1H-1,2,4-triazol-1-yl)-2-fluorobenzyl)-2-methyl-1H-imidazol-4-yl)acetonitrile]: the IC50 under setting [3] lay within 100 to 1000 nM. For the molecule `CC1(C#N)CN(c2cc(Oc3ccc(-n4ncn(Cc5c(F)cccc5F)c4=O)cc3F)c(Cl)cn2)C1` [Example 257, 1-(5-chloro-4-(4-(4-(2,6-difluorobenzyl)-5-oxo-4,5-dihydro-1H-1,2,4-triazol-1-yl)-2-fluorophenoxy)pyridin-2-yl)-3-methylazetidine-3-carbonitrile], the IC50 under setting [2] is under 100 nM.

For the molecule `Cc1nc(C(=O)NO)sc1Oc1ccc(-n2ncn(Cc3ccccc3F)c2=O)cc1F` [Example 594, 5-(2-fluoro-4-(4-(2-fluorobenzyl)-5-oxo-4,5-dihydro-1H-1,2,4-triazol-1-yl)phenoxy)-N-hydroxy-4-methylthiazole-2-carboxamide], the IC50 under setting [3] is 100 to 1000 nM. As for `Cc1nc(N)sc1Oc1ccc(-n2ncn(Cc3c(F)cccc3F)c2=O)cc1` [Example 91, 2-(4-((2-amino-4-methylthiazol-5-yl)oxy)phenyl)-4-(2,6-difluorobenzyl)-2,4-dihydro-3H-1,2,4-triazol-3-one], under setting [1], the IC50 is under 100 nM.

Regarding `CNC(=O)c1nc(C)c(Oc2ccc(-n3ncn(Cc4c(F)cccc4F)c3=O)cc2F)s1` [Example 609, 5-(4-(4-(2,6-difluorobenzyl)-5-oxo-4,5-dihydro-1H-1,2,4-triazol-1-yl)-2-fluorophenoxy)-N,4-dimethylthiazole-2-carboxamide], the IC50 under setting [3] is under 100 nM. With `Cc1nc(CC(=O)O)sc1Oc1ccc(-n2ncn(Cc3c(F)cccc3F)c2=O)cc1F` [Example 637, 2-[5-[4-[4-[(2,6-difluorophenyl)methyl]-5-oxo-1,2,4-triazol-1-yl]-2-fluoro-phenoxy]-4-methyl-thiazol-2-yl]acetic acid], where the note is “HT-29, HT-29 cells, necroptosis induced by TNF-α/SMAC mimetic/zVAD-FMK, CellTiter-Glo, read-out: Activity (IC50 class)”, the IC50 is under 100 nM. As to `Cc1c(Oc2ccc(-n3nc4n(c3=O)[C@H](c3ccccc3)CC4)cc2F)noc1C(N)=O` (single isomer, unassigned) [Example 690], the IC50 under setting [1] is under 100 nM. Still for that read-out and setting: the result for `COC(=O)c1nc(C)c(Oc2ccc(-n3ncn(Cc4ccccc4F)c3=O)cc2F)s1` [Example 107, methyl 5-(2-fluoro-4-(4-(2-fluorobenzyl)-5-oxo-4,5-dihydro-1H-1,2,4-triazol-1-yl)phenoxy)-4-methylthiazole-2-carboxylate] reads under 100 nM. With `CN(C)C1(C)CN(c2cc(Oc3ccc(-n4ncn(Cc5c(F)cccc5F)c4=O)cc3F)c(F)cn2)C1` [Example 371, 4-(2,6-difluorobenzyl)-2-(4-((2-(3-(dimethylamino)-3-methylazetidin-1-yl)-5-fluoropyridin-4-yl)oxy)-3-fluorophenyl)-2,4-dihydro-3H-1,2,4-triazol-3-one], under setting [2], the IC50 lay within 100 to 1000 nM.

(Values after patent US20250179061A1 (SIRONAX LTD., priority 2022, published 2025).)
